According to BindingDB's records for doi:10.1021/ml400168h (Merck Research Laboratories, 2013):

Target: Sterol O-acyltransferase 1 / ACAT1 (Homo sapiens) (UniProt P35610)
Assay: Inhibition of human ACAT1

Sequence of Sterol O-acyltransferase 1 / ACAT1 (Homo sapiens) (P35610 whole entry, looked up): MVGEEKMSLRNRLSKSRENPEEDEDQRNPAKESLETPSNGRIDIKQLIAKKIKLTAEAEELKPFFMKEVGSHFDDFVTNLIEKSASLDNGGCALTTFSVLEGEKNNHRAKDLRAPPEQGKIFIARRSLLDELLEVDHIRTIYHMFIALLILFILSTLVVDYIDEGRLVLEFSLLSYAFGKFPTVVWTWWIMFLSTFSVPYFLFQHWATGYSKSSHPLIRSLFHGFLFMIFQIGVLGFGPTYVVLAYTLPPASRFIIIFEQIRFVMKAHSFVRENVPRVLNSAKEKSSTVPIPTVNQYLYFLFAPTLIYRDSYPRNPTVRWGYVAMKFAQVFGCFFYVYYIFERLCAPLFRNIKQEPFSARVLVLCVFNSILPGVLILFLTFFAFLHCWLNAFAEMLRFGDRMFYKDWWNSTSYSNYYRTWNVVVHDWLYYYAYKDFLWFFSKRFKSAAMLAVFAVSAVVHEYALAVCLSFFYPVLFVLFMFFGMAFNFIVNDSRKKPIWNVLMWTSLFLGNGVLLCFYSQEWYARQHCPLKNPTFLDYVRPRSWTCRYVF

IC50 | Structure (SMILES)
> 10 µM | O=C(O)[C@H]1CC[C@H](Oc2ccc(-c3ccc(-c4nc5ccc(F)cc5[nH]4)cn3)cn2)CC1
> 10 µM | O=C(O)[C@H]1CC[C@@H](Oc2ccc(-c3ccc(-c4nc5ccc(F)cc5[nH]4)cn3)cn2)CC1
6.07 µM | O=C(O)[C@H]1CC[C@H](Oc2ccc(-c3ccc(-c4nc5ccccc5[nH]4)cn3)cn2)CC1
8.08 µM | O=C(O)[C@H]1CC[C@@H](Oc2ccc(-c3ccc(-c4nc5ccccc5[nH]4)cn3)cn2)CC1
4.9 µM | COc1ccc2[nH]c(-c3ccc(-c4ccc(O[C@H]5CC[C@H](C(=O)O)CC5)nc4)nc3)nc2n1
2.48 µM | COc1ccc2[nH]c(-c3ccc(-c4ccc(O[C@H]5CC[C@@H](C(=O)O)CC5)nc4)nc3)nc2n1
> 10 µM | CS(=O)(=O)c1ccc2nc(-c3ccc(-c4ccc(O[C@H]5CC[C@H](C(=O)O)CC5)nc4)nc3)[nH]c2c1
> 10 µM | CS(=O)(=O)c1ccc2nc(-c3ccc(-c4ccc(O[C@H]5CC[C@@H](C(=O)O)CC5)nc4)nc3)[nH]c2c1
0.772 µM | O=C(O)[C@H]1CC[C@@H](Oc2ccc(-c3ccc(-c4nc5ccc(OC(F)(F)F)cc5[nH]4)cn3)cn2)CC1
> 10 µM | N#Cc1ccc2nc(-c3ccc(-c4ccc(O[C@H]5CC[C@H](C(=O)O)CC5)nc4)nc3)[nH]c2c1
> 10 µM | N#Cc1ccc2nc(-c3ccc(-c4ccc(O[C@H]5CC[C@@H](C(=O)O)CC5)nc4)nc3)[nH]c2c1
8.44 µM | O=C(O)[C@H]1CC[C@H](Oc2ccc(-c3ccc(-c4nc5cc(F)c(F)cc5[nH]4)cn3)cn2)CC1
> 10 µM | O=C(O)[C@H]1CC[C@@H](Oc2ccc(-c3ccc(-c4nc5cc(F)c(F)cc5[nH]4)cn3)cn2)CC1
0.167 µM | O=C(O)C[C@H]1CC[C@H](c2ccc(-c3ccc(-c4nc5ccc(Cl)cc5[nH]4)cn3)cc2)CC1
0.293 µM | O=C(O)C[C@H]1CC[C@H](c2ccc(-c3ccc(-c4nc5ccc(C(F)(F)F)cc5[nH]4)cn3)cc2)CC1
1.34 µM | O=C(O)[C@H]1CC[C@H](Oc2ccc(-c3ccc(-c4nc5ccc(Cl)cc5[nH]4)cn3)cn2)CC1
3.53 µM | O=C(O)[C@H]1CC[C@@H](Oc2ccc(-c3ccc(-c4nc5ccc(Cl)cc5[nH]4)cn3)cn2)CC1
1.23 µM | O=C(O)[C@H]1CC[C@H](Oc2ccc(-c3ccc(-c4nc5ccc(C(F)(F)F)cc5[nH]4)cn3)cn2)CC1
1.09 µM | O=C(O)[C@H]1CC[C@@H](Oc2ccc(-c3ccc(-c4nc5ccc(C(F)(F)F)cc5[nH]4)cn3)cn2)CC1
